Test results from patent US7799770B2, “Solid body forms of mesoprogestin 11β-{4E-(hydroxyiminomethyl)-phenyl}-17α methoxymethyl-17β-methoxy-estra-4,9-dien-3-one” (Bayer Schering Pharma AG, priority 2000, dated 2010).

Columns and labels:
Solubility in toluene = type: physicochemical
From the text: The production of the solvate form that is suitable for the solid final form of the oxime can be associated, according to the invention, with the separation of the Z-isomer and the dioximes. By a specific use of the thermodynamic instability of suitable solvates, preferably the solvate of methyl-tert-butyl ether (MTBE) in a solvent environment that is suitable for this purpose, complete dissolution of the solvate lattice is possible far above the solubility limit and even close to room temperature. […] A so-called cold melting is carried out. This state can be kept stable by adding suitable solvents as recrystallization inhibitors for technical applications. The supersaturation state can be stabilized for hours in toluene solution by adding only 5% by volume of methanol. Then, by adding solvating agent-solvent (MTBE) at suitable concentration (e.g., 100-130% by volume of MTBE, relative to the toluene that is used), the solvate lattice is built up again, whereby the contaminants remain in solution for the most part.

progesterone receptor = molecular target: T1, progesterone receptor (Homo sapiens, UniProt P06401); conditions: according to EP-A-0 648 778 or DE-A-43 32 283; cited from earlier work
T1 sequence (P06401 1-933): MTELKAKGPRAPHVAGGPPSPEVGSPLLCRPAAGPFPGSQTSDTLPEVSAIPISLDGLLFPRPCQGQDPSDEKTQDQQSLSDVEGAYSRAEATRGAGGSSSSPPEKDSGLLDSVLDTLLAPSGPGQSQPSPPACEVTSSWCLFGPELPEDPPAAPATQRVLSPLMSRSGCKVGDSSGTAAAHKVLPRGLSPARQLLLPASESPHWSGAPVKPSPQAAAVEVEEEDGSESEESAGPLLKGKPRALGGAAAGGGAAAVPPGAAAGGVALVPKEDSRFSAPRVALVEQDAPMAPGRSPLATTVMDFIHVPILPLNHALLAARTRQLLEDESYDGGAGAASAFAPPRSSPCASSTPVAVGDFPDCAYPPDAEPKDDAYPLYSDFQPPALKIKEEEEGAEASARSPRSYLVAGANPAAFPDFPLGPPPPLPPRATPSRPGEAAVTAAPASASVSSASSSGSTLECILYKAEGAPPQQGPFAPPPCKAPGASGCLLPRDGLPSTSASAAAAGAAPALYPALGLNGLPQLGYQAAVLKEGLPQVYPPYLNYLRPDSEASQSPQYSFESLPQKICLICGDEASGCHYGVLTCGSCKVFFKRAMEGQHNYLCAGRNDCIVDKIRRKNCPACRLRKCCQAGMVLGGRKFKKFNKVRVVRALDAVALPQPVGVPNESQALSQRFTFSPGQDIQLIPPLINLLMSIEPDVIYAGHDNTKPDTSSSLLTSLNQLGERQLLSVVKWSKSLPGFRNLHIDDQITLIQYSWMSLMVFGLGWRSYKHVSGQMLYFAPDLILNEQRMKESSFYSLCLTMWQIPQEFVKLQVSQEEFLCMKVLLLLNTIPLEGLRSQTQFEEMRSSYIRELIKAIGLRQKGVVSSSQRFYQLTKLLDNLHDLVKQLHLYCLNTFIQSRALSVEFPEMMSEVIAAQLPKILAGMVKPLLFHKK

[1] = tested on: antiglucocorticoidal activity; conditions: according to EP-A-0 648 778 or DE-A-43 32 283; cited from earlier work
[2] = Solubility studies (saturation solubility in water without and with 0.25% SDS); type: physicochemical
Description: 200 mg of substance was added at 25° C. into 50 ml of water (without and with 0.25% SDS (sodium lauryl sulfate)). Samples were taken after 0.5 hour, 2 hours, 5 hours and 24 hours.
Sampling: 0.45 μm filter attachment, dilution 1:1 with MeOH, HPLC.

[3] = Stability of the physical structure during pharmaceutical processing (wet granulation, pelletizing); type: physicochemical
From the text: (§1) By the stability, negative influences of such conversions on the bio-availability of the active ingredient are avoided.

[4] = Shelf life / accelerated ICH-stability test; type: physicochemical
Description: In FIG. 5, an x-ray-powder diffractogram of amorphous 11β-[4E-(hydroxyiminomethyl)phenyl]-17α-methoxymethyl-17β-methoxy-estra-4,9-dien-3-one is depicted at time 0 (start), after 12 months at 25° C. and after 12 months at 40° C.
as §1

## COC[C@]1(OC)CC[C@H]2[C@@H]3CCC4=CC(=O)CCC4=C3[C@@H](c3ccc(/C=N/O)cc3)C[C@@]21C [MTBE solvate, 11β-[4E-(hydroxyiminomethyl)phenyl]-17α-methoxymethyl-17β-methoxy-estra-4,9-dien-3-one]
Solubility in toluene
  solubility in toluene: 3.3 % by weight

## COC[C@]1(OC)CC[C@H]2[C@@H]3CCC4=CC(=O)CCC4=C3[C@@H](c3ccc(/C=N/O)cc3)C[C@@]21C [Oxime J867, 11β-[4E-(hydroxyiminomethyl)phenyl]-17α-methoxymethyl-17β-methoxy-estra-4,9-dien-3-one]
Progesterone receptor
  activity on the progesterone receptor compared with RU 486 (mifepristone): same activity as RU 486 (mifepristone)
[1]
  antiglucocorticoidal activity compared with RU 486: significantly reduced

## COC[C@]1(OC)CC[C@H]2[C@@H]3CCC4=CC(=O)CCC4=C3[C@@H](c3ccc(/C=N/O)cc3)C[C@@]21C [amorphous form of oxime J867, 11β-[4E-(hydroxyiminomethyl)phenyl]-17α-methoxymethyl-17β-methoxy-estra-4,9-dien-3-one]
[2]; in surfactant solution (sodium lauryl sulfate)
  time for which the high supersaturation level remains stable: stable for several hours
[2]; in water
  time for which the high supersaturation level remains stable: over 24 hours
[3]
  physical structure during pharmaceutical processing (conversion amorphous to highly crystalline, E/Z isomerization): remains stable
[4]; after 12 months, 40° C., 75% relative humidity
  signs of recrystallization and/or chemical decomposition of the amorphous structure: does not show any signs of a recrystallization and/or chemical decomposition

## COC[C@]1(OC)CC[C@H]2[C@@H]3CCC4=CC(=O)CCC4=C3[C@@H](c3ccc(/C=N/O)cc3)C[C@@]21C [highly crystalline form of oxime J 867, 11β-[4E-(hydroxyiminomethyl)phenyl]-17α-methoxymethyl-17β-methoxy-estra-4,9-dien-3-one ansolvate]
[4]; especially under stress (high temperatures and humidities)
  chemical stability compared with the amorphous form: higher than that of the amorphous form
